Measurements from PMC9506049, “Oxidation of p-[^125I]Iodobenzoic Acid and p-[^211At]Astatobenzoic Acid Derivatives and Evaluation In Vivo” (International Journal of Molecular Sciences, 2022).
One block for each molecule: values may come before it.

Assays:
[1] = Stability to isolation from radio-HPLC effluent, evaporation and dissolution in PBS (radio-HPLC reinjection); assay type: physicochemical; settings: evaporation of solvents, dissolution in PBS
Method: Similarly, radiohalogenation of para-tri-n-butylstannylbenzamidyl-dPEG4-carboxylic acid methyl ester 9 (Figure 3) using ChT as oxidant provided quantitative yields of [^125I]10 and [^211At]12 by radio-HPLC analyses (Figure 4A,B). The radiohalogenation reaction products were used without purification in the oxidation reactions to make the corresponding iodoxyaryl or astatoxyaryl compounds. Oxidation of [^125I]5 (Figure 2) provided [^125I]6 in 71% RCY. Oxidation of [^125I]10 (Figure 3) at 70 °C for 20 min provided a complex mixture of products, but isolation of the major peak (~6–8 min) provided [^125I]11 in 60% RCY (Figure 4C,E). […]
Two biodistribution studies were conducted. One biodistribution study evaluated the tissue distribution in athymic mice of isolated products from the reactions to produce [^125I]11 and [^211At]13. […]
HPLC analyses of non-radioactive compounds were performed using a system composed of a Hewlett-Packard quaternary 1050 gradient pump, a variable wavelength UW detector (254 nm) and an evaporative light scattering detector (ELSD 2000, Alltech, Deerfield, IL, USA). Radio-HPLC analysis of product mixtures from radiohalogenation reactions were analyzed using a system composed of two Beckman model 110 B pumps, a Beckman 420 controller, a Beckman model 153 UV detector (254 nm), and a Beckman model 170 radiation detector. […]

[2] = Biodistribution of coinjected [125I]11 and [211At]13 in athymic mice; assay type: in vivo; settings: tail vein coinjection, 3 µCi each, n = 5, mean ± SD; for Concentration of radioactivity in neck: neck (thyroid)
[3] = Solubility observations; assay type: physicochemical

Compound: COC(=O)CCOCCOCCOCCOCCNC(=O)c1ccc([211At](=O)=O)cc1 [[211At]13, p-[^211At]astatoxylbenzoyl-dPEG-methyl ester]
Stability under the conditions of isolation by radio-HPLC [1]: too unstable

Concentration of radioactivity in blood ([2]; 1 h p.i.): 0.22 ± 0.14 %ID/g
Concentration of radioactivity in intestine ([2]; 1 h p.i.): 9.59 ± 8.73 %ID/g
Concentration of radioactivity in kidney ([2]; 1 h p.i.): 0.84 ± 0.23 %ID/g
Concentration of radioactivity in liver ([2]; 1 h p.i.): 1.73 ± 0.96 %ID/g
Concentration of radioactivity in lung ([2]; 1 h p.i.): 0.32 ± 0.10 %ID/g
Concentration of radioactivity in muscle ([2]; 1 h p.i.): 0.12 ± 0.05 %ID/g
Concentration of radioactivity in spleen ([2]; 1 h p.i.): 0.35 ± 0.28 %ID/g
Concentration of radioactivity in stomach ([2]; 1 h p.i.): 3.53 ± 1.09 %ID/g
Concentration of radioactivity in blood ([2]; 4 h p.i.): 0.23 ± 0.18 %ID/g
Concentration of radioactivity in intestine ([2]; 4 h p.i.): 3.39 ± 1.15 %ID/g
Concentration of radioactivity in kidney ([2]; 4 h p.i.): 0.40 ± 0.15 %ID/g
Concentration of radioactivity in liver ([2]; 4 h p.i.): 0.64 ± 0.47 %ID/g
Concentration of radioactivity in lung ([2]; 4 h p.i.): 0.14 ± 0.07 %ID/g
Concentration of radioactivity in muscle ([2]; 4 h p.i.): 0.03 ± 0.01 %ID/g
Concentration of radioactivity in spleen ([2]; 4 h p.i.): 0.08 ± 0.04 %ID/g
Concentration of radioactivity in stomach ([2]; 4 h p.i.): 0.65 ± 0.16 %ID/g
Concentration of radioactivity in blood ([2]; 24 h p.i.): 0.01 ± 0.00 %ID/g
Concentration of radioactivity in intestine ([2]; 24 h p.i.): 0.02 ± 0.01 %ID/g
Concentration of radioactivity in kidney ([2]; 24 h p.i.): 0.03 ± 0.01 %ID/g
Concentration of radioactivity in liver ([2]; 24 h p.i.): 0.01 ± 0.00 %ID/g
Concentration of radioactivity in lung ([2]; 24 h p.i.): 0.54 ± 0.85 %ID/g
Concentration of radioactivity in spleen ([2]; 24 h p.i.): 0.01 ± 0.00 %ID/g
Concentration of radioactivity in stomach ([2]; 24 h p.i.): 0.02 ± 0.01 %ID/g
Concentration of radioactivity in neck ([2]; 1 h p.i.): 0.49 ± 0.09 %ID/g
Concentration of radioactivity in neck ([2]; 4 h p.i.): 0.35 ± 0.14 %ID/g
Concentration of radioactivity in neck ([2]; 24 h p.i.): 0.02 ± 0.01 %ID/g
Stability under the conditions of isolation by radio-HPLC [1]: did not change during that process
Compound: COC(=O)CCOCCOCCOCCOCCNC(=O)c1ccc([125I](=O)=O)cc1 [[125I]11]

melting point: 243 to 245 °C
Solubility in DMSO ([3]; DMSO at room temperature): only partially soluble
Solubility ([3]; all solvents tried): very insoluble in all solvents tried
Compound: COC(=O)c1ccc(I(=O)=O)cc1 [Compound 6, Para-Iodoxybenzoic Acid Methyl Ester]
